In patent publication US6420424B1, “CCR-3 receptor antagonists” (SmithKline Beecham Corporation, priority 1998, dated 2002):

melting point: 120 to 122 °C
SMILES: CCOC(=O)[C@H](Cc1ccc(N)cc1)NC(=O)c1ccccc1 [Example 6, (S)-Ethyl-2-benzoylamino-3-(4-aminophenyl)propionate]
